Reference: patent US9981959B2, “Thiazolyl and oxazolyl urea, thiourea, guanidine and cyanoguanidine compounds as TrkA kinase inhibitors” (Array BioPharma Inc., priority 2012, dated 2018)

How the values were obtained:
Test in all cases: KinaseProfiler off-target kinase profiling
Format in all cases: biochemical
Conditions in all cases: 10 μM, ATP near Km
MST1 = target: T1, MST1 (Homo sapiens, UniProt Q13043)
T1 construct: purchased Millipore, Inc. (KinaseProfiler service)
Protocol: (§1) A representative compound of the invention (Example 2) was tested for off-target kinase activity at a concentration of 10 μM by Millipore, Inc. in their KinaseProfiler™ service against all the kinases available in their full kinase panel. The compound was run in duplicate at a concentration of ATP near the Km for each individual kinase according to Millipore's specifications. The results are shown in Table B. Data are reported as percent of control (POC) and are the average of the two replicates.

p38beta = target: T2, p38beta (Homo sapiens, UniProt Q15759)
T2 construct: purchased Millipore, Inc. (KinaseProfiler service)
Protocol: as §1

JNK1alpha1 = target: T3, JNK1alpha1 (Homo sapiens, UniProt P45983)
T3 construct: purchased Millipore, Inc. (KinaseProfiler service)
Protocol: as §1

Plk3 = target: T4, Plk3 (Homo sapiens, UniProt Q9H4B4)
T4 construct: purchased Millipore, Inc. (KinaseProfiler service)
Protocol: as §1

CAMK1d = target: T5, CAMK1d (Homo sapiens, UniProt Q8IU85)
T5 construct: purchased Millipore (KinaseProfiler service)
Protocol: as §1

PDGFRbeta = target: T6, PDGFRbeta (Homo sapiens, UniProt P09619)
T6 construct: purchased Millipore, Inc. (KinaseProfiler service)
Protocol: as §1

ERK1 = target: T7, ERK1 (Homo sapiens, UniProt P27361)
T7 construct: purchased Millipore, Inc. (KinaseProfiler service)
Protocol: as §1

p70S6K = target: T8, p70S6K (Homo sapiens, UniProt P23443)
T8 construct: purchased Millipore, Inc. (KinaseProfiler service)
Protocol: as §1

Flt3 = target: T9, Flt3 (Homo sapiens, UniProt P36888)
T9 construct: purchased Millipore, Inc. (KinaseProfiler service)
Protocol: as §1

EphB2 = target: T10, EphB2 (Homo sapiens, UniProt P29323)
T10 construct: purchased Millipore, Inc. (KinaseProfiler service)
Protocol: as §1

Haspin = target: T11, Haspin (Homo sapiens, UniProt Q8TF76)
T11 construct: purchased Millipore, Inc. (KinaseProfiler service)
Protocol: as §1

CK2 = target: T12, CK2 (Homo sapiens, UniProt P68400)
T12 construct: purchased Millipore, Inc. (KinaseProfiler service)
Protocol: as §1

KDR = target: T13, KDR (Homo sapiens, UniProt P35968)
T13 construct: purchased Millipore, Inc. (KinaseProfiler service)
Protocol: as §1

JAK3 = target: T14, JAK3 (Homo sapiens, UniProt P52333)
T14 construct: purchased Millipore, Inc. (KinaseProfiler service)
Protocol: as §1

TAO1 = target: T15, TAO1 (Homo sapiens, UniProt Q7L7X3)
T15 construct: purchased Millipore, Inc. (KinaseProfiler service)
Protocol: as §1

MINK = target: T16, MINK (Homo sapiens, UniProt Q8N4C8)
T16 construct: purchased Millipore, Inc. (KinaseProfiler service)
Protocol: as §1

DYRK2 = target: T17, DYRK2 (Homo sapiens, UniProt Q92630)
T17 construct: purchased Millipore, Inc. (KinaseProfiler service)
Protocol: as §1

EphA5 = target: T18, EphA5 (Homo sapiens, UniProt P54756)
T18 construct: purchased Millipore, Inc. (KinaseProfiler service)
Protocol: as §1

ULK3 = target: T19, ULK3 (Homo sapiens, UniProt Q6PHR2)
T19 construct: purchased Millipore, Inc. (KinaseProfiler service)
Protocol: as §1

EphB1 = target: T20, EphB1 (Homo sapiens, UniProt P54762)
T20 construct: purchased Millipore, Inc. (KinaseProfiler service)
Protocol: as §1

MELK = target: T21, MELK (Homo sapiens, UniProt Q14680)
T21 construct: purchased Millipore, Inc. (KinaseProfiler service)
Protocol: as §1

MSK2 = target: T22, MSK2 (Homo sapiens, UniProt O75676)
T22 construct: purchased Millipore, Inc. (KinaseProfiler service)
Protocol: as §1

PKCbetaII = target: T23, PKCbetaII (Homo sapiens, UniProt P05771)
T23 construct: purchased Millipore, Inc. (KinaseProfiler service)
Protocol: as §1

p38gamma = target: T24, p38gamma (Homo sapiens, UniProt P53778)
T24 construct: purchased Millipore, Inc. (KinaseProfiler service)
Protocol: as §1

MSSK1 = target: T25, MSSK1 (Homo sapiens, UniProt Q9UPE1)
T25 construct: purchased Millipore, Inc. (KinaseProfiler service)
Protocol: as §1

PRKG1alpha = target: T26, PRKG1alpha (Homo sapiens, UniProt Q13976)
T26 construct: purchased Millipore, Inc. (KinaseProfiler service)
Protocol: as §1

AKT3 = target: T27, AKT3 (Homo sapiens, UniProt Q9Y243)
T27 construct: purchased Millipore (KinaseProfiler service)
Protocol: as §1

ULK2 = target: T28, ULK2 (Homo sapiens, UniProt Q8IYT8)
T28 construct: purchased Millipore, Inc. (KinaseProfiler service)
Protocol: as §1

Rsk4 = target: T29, Rsk4 (Homo sapiens, UniProt Q9UK32)
T29 construct: purchased Millipore, Inc. (KinaseProfiler service)
Protocol: as §1

ITK = target: T30, ITK (Homo sapiens, UniProt Q08881)
T30 construct: purchased Millipore, Inc. (KinaseProfiler service)
Protocol: as §1

JNK2alpha2 = target: T31, JNK2alpha2 (Homo sapiens, UniProt P45984)
T31 construct: purchased Millipore, Inc. (KinaseProfiler service)
Protocol: as §1

Fes = target: T32, Fes (Homo sapiens, UniProt P07332)
T32 construct: purchased Millipore, Inc. (KinaseProfiler service)
Protocol: as §1

TAO3 = target: T33, TAO3 (Homo sapiens, UniProt Q9H2K8)
T33 construct: purchased Millipore, Inc. (KinaseProfiler service)
Protocol: as §1

Lck = target: T34, Lck (Homo sapiens, UniProt P06239)
T34 construct: purchased Millipore, Inc. (KinaseProfiler service)
Protocol: as §1

mTOR/FKBP12 = target: T35, mTOR/FKBP12 (Homo sapiens, UniProt P42345)
T35 construct: purchased Millipore, Inc. (KinaseProfiler service)
Protocol: as §1

CK1gamma3 = target: T36, CK1gamma3 (Homo sapiens, UniProt Q9Y6M4)
T36 construct: purchased Millipore, Inc. (KinaseProfiler service)
Protocol: as §1

Ret = target: T37, Ret (Homo sapiens, UniProt P07949)
T37 construct: purchased Millipore, Inc. (KinaseProfiler service)
Protocol: as §1

Flt1 = target: T38, Flt1 (Homo sapiens, UniProt P17948)
T38 construct: purchased Millipore, Inc. (KinaseProfiler service)
Protocol: as §1

CDK3/cyclinE = target: T39, CDK3/cyclinE (Homo sapiens, UniProt Q00526)
T39 construct: purchased Millipore, Inc. (KinaseProfiler service)
Protocol: as §1

Ron = target: T40, Ron (Homo sapiens, UniProt Q04912)
T40 construct: purchased Millipore, Inc. (KinaseProfiler service)
Protocol: as §1

PKCgamma = target: T41, PKCgamma (Homo sapiens, UniProt P05129)
T41 construct: purchased Millipore, Inc. (KinaseProfiler service)
Protocol: as §1

T17 sequence (Q92630 whole entry): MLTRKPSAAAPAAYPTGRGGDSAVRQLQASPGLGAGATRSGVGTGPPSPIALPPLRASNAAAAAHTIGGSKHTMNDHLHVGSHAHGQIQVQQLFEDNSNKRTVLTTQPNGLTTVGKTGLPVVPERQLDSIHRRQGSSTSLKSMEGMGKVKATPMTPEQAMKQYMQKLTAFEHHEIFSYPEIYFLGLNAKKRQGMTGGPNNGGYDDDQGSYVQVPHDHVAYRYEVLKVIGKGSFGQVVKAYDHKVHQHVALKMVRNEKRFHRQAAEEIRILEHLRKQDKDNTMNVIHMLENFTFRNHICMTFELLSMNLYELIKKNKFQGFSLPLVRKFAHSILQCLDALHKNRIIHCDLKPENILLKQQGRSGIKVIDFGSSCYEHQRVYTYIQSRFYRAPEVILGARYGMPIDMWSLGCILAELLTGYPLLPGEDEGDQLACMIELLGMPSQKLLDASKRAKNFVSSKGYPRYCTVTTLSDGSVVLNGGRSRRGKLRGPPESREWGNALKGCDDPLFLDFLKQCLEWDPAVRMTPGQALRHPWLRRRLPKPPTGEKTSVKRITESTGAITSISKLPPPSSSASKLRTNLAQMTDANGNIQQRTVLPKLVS
T2 sequence (Q15759 whole entry): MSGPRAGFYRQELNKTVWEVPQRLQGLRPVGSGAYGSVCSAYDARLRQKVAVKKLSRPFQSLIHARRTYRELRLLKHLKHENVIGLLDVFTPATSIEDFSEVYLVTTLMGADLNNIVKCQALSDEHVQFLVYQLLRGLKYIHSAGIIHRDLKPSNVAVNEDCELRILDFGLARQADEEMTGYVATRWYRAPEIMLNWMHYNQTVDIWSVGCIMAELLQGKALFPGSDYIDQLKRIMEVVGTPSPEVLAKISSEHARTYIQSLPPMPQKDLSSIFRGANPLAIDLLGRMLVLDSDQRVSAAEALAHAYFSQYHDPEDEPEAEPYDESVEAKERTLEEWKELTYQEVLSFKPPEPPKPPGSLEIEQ
T38 sequence (P17948 27-1338): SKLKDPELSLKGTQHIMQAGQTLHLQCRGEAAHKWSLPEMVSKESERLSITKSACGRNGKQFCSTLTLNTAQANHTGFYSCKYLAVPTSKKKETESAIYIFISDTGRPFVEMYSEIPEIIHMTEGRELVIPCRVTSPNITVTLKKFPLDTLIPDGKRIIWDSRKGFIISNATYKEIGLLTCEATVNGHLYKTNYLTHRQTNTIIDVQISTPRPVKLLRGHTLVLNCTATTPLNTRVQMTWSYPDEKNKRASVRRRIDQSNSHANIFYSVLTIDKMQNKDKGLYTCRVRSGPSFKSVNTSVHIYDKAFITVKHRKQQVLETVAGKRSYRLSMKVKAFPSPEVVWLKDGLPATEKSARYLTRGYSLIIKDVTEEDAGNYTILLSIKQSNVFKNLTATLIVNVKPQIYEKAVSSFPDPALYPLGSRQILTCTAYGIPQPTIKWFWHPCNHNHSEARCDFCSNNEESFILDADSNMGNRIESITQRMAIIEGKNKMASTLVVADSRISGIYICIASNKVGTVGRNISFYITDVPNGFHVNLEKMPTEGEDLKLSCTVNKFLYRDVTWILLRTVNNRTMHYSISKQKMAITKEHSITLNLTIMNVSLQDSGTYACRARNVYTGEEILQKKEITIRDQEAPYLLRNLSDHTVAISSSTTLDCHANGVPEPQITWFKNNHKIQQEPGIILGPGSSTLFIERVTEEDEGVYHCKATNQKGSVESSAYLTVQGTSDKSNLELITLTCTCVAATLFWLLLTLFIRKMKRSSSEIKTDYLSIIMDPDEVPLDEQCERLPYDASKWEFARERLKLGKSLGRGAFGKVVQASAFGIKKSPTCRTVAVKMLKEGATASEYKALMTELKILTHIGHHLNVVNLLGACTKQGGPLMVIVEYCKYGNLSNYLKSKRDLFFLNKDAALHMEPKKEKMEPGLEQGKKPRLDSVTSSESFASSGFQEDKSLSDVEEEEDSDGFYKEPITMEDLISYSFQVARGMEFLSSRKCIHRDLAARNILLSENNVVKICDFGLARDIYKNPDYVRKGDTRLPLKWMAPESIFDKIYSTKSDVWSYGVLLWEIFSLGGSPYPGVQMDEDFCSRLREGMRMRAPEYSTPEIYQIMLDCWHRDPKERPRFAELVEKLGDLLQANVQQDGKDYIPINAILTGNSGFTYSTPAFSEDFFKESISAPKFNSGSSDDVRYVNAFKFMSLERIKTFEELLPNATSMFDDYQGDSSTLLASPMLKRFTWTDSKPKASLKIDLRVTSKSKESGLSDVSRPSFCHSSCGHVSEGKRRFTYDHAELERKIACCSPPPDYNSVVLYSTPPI
T16 sequence (Q8N4C8 whole entry): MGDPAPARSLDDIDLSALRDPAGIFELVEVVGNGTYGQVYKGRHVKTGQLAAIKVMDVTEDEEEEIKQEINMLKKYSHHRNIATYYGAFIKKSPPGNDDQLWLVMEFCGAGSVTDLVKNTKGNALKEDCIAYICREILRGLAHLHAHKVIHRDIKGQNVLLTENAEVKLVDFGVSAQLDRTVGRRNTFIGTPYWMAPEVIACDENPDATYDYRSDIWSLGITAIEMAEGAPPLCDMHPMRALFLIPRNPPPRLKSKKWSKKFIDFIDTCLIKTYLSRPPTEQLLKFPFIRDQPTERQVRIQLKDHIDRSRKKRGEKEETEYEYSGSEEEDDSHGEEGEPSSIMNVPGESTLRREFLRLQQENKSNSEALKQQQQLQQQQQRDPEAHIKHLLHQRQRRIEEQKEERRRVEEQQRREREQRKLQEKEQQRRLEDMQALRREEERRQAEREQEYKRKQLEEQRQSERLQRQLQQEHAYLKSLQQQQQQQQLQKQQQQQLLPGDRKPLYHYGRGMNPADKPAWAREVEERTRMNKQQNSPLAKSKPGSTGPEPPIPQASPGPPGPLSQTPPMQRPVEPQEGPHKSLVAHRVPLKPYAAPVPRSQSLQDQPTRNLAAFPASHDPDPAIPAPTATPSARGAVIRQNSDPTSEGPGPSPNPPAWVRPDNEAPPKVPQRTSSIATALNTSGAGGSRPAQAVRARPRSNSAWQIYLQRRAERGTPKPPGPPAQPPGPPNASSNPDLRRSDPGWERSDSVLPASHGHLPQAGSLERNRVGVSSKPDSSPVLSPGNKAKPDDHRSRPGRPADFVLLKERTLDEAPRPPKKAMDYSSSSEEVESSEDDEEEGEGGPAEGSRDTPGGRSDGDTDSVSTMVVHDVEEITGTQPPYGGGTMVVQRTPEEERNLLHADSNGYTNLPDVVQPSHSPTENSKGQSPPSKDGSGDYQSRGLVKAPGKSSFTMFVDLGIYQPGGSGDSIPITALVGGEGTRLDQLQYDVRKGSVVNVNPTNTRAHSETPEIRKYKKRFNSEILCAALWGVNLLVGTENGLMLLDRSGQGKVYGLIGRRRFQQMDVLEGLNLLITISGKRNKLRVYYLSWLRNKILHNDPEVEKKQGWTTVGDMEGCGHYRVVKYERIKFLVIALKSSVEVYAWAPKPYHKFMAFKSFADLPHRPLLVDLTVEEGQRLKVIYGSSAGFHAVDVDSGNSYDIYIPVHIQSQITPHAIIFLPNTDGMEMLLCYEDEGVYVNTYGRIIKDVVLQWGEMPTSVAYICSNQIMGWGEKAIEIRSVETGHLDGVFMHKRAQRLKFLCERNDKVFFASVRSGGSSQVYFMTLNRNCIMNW
T32 sequence (P07332 whole entry): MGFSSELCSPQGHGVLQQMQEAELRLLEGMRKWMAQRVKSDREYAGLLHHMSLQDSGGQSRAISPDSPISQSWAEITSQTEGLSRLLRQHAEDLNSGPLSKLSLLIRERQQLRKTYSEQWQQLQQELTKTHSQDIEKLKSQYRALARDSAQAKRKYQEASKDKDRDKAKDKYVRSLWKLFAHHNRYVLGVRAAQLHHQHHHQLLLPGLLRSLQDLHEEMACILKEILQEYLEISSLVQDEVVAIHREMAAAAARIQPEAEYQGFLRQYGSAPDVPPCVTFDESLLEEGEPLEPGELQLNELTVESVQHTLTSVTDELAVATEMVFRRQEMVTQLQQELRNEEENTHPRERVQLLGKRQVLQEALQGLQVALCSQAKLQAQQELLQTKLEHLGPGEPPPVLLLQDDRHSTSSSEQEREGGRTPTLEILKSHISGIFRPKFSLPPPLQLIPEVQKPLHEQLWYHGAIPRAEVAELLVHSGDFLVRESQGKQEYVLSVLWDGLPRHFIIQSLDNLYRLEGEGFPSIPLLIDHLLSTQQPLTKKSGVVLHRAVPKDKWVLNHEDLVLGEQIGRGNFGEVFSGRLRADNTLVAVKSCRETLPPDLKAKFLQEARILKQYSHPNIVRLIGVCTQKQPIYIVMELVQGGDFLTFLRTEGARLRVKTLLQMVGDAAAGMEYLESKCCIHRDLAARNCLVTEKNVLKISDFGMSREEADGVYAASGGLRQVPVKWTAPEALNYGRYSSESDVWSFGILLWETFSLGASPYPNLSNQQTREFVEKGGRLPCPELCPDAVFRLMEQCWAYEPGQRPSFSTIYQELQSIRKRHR
T34 sequence (P06239 whole entry): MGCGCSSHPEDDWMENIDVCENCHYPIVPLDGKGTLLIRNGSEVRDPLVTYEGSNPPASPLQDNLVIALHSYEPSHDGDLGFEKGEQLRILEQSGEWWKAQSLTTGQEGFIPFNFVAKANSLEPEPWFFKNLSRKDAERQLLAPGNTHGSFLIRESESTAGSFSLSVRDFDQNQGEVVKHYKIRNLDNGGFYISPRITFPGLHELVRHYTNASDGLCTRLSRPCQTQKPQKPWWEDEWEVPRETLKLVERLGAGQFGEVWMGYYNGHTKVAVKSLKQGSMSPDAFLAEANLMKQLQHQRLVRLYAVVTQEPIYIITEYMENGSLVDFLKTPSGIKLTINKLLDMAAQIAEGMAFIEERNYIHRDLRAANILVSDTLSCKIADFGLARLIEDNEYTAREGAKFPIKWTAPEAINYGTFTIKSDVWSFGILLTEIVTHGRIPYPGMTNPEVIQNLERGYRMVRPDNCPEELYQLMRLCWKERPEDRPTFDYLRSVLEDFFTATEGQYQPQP

Cc1c(-c2cnn(C)c2)nn(-c2ccccc2)c1NC(=O)Nc1sc(C(F)(F)F)nc1-c1ccccc1 [Example 2, 1-(1′,4-dimethyl-1-phenyl-1H,1′H-[3,4′-bipyrazol]-5-yl)-3-(4-phenyl-2-(trifluoromethyl)thiazol-5-yl)urea]
Avg POC (MST1): 100.5 POC | Avg POC (p38beta): 106.5 POC | Avg POC (JNK1alpha1): 113 POC | Avg POC (Plk3): 105 POC | Avg POC (CAMK1d): 132.5 POC | Avg POC (PDGFRbeta): 162 POC | Avg POC (ERK1): 96.5 POC | Avg POC (p70S6K): 322 POC | Avg POC (Flt3): 98 POC | Avg POC (EphB2): 119 POC | Avg POC (Haspin): 112.5 POC | Avg POC (CK2): 95 POC | Avg POC (KDR): 126 POC | Avg POC (JAK3): 113 POC | Avg POC (TAO1): 103.5 POC | Avg POC (MINK): 117.5 POC | Avg POC (DYRK2): 88 POC | Avg POC (EphA5): 118.5 POC | Avg POC (ULK3): 90 POC | Avg POC (EphB1): 136 POC | Avg POC (MELK): 99 POC | Avg POC (MSK2): 136 POC | Avg POC (PKCbetaII): 95 POC | Avg POC (p38gamma): 105 POC | Avg POC (MSSK1): 132 POC | Avg POC (PRKG1alpha): 118 POC | Avg POC (AKT3): 116 POC | Avg POC (ULK2): 91 POC | Avg POC (Rsk4): 98 POC | Avg POC (ITK): 125.5 POC | Avg POC (JNK2alpha2): 97.5 POC | Avg POC (Fes): 121.5 POC | Avg POC (TAO3): 94 POC | Avg POC (Lck): 103 POC | Avg POC (mTOR/FKBP12): 103 POC | Avg POC (CK1gamma3): 114 POC | Avg POC (Ret): 91.5 POC | Avg POC (Flt1): 104 POC | Avg POC (CDK3/cyclinE): 105 POC | Avg POC (Ron): 110.5 POC | Avg POC (PKCgamma): 90 POC
